Patent publication US20080255175A1, “Anti-cancer agents, compositions and methods of treating cancers” (priority 2007, published 2008)
Each block holds one compound with its values, some of them ahead of it.

Key:
HT-29, Human Colorectal = test: Cell proliferation 96-welled in vitro MTT assay, HT-29; type: cell-based; details: 72 hr incubation, triplicate
Method: (§1) In vitro Efficacy: The Compounds were tested in a Cell Proliferation 96-welled in vitro MTT assay
(§2) The tests were done in triplicate and the test samples included negative control, positive control and ACB compounds at several concentrations (10^−4 to 10^−8) in 0.4% DMSO/DW medium. The incubation time was 72 hr and the IC50 was calculated from the generated inhibition curves.

MCF-7, Human Breast = test: Cell proliferation 96-welled in vitro MTT assay, MCF-7; type: cell-based; details: MCF7, 72 hr incubation, triplicate
Method: as §1, §2

P388, Mouse Lymphoma = test: Cell proliferation 96-welled in vitro MTT assay, P388; type: cell-based; details: 72 hr incubation, triplicate
Method: as §1, §2

[1] = Body weight of nude mice in the NCI-H460 xenograft study; type: in vivo, BALB/c nude mice; details: after four weeks, twice every week, model 22.07 ± 1.68
Text: (§3) BALB/c nude mice, were provided by Shanghai SLAC Experimental Animal Co., Ltd. (Experimental animal production license:SCXK (Shanghai) 2003-0003; Experimental animal application license:SYXK (Jiangsu) 2002-0053). The ages of the mice was 35-40 days; their body weight was 18-22 g; half of the mice were female and the other half were male. Eight nude mice were used per group.
(§4) The tumor growing in Log phase was isolated from nude mice and sliced into 1.5 mm^3 particles. Under SPF conditions, the tumor particles were inoculated s.c. of nude mice right axilla. The xenografted tumor was measured the length and width by vernier caliper. Nude mice were randomly divided into eight groups when the bearing tumor reached 100-300mm^3 volume. Tumor length and width were measured twice every week to dynamic evaluate the anticancer activity of the tested compounds. Compound 1 was given by i.p. twice every week, compound 2 was given by i.v. twice every week, compound 3 was given by i.v. twice every week, control Topotecan was given by i.v. twice every week. In model group saline was give i.v. twice every week. After four weeks drug administration, nude mice were sacrificed and tumor was isolated by surgery for weight detection.

[2] = tested on: NCI-H460 human non-small cell lung cancer; test: NCI-H460 human non-small cell lung cancer nude mice xenograft model; type: in vivo, BALB/c nude mice; details: for Tumor Weight / Tumor Inhibitory Growth Weight: after four weeks; for Tumor Weight: twice every week, model 3.08 ± 0.88; for effect on nude mice xenograft NCI-H460 human non-small cell lung cancer growth (in words): mouse, in vivo; for dose dependence of anticancer effect (in words): two dosages per compound
Text: In this study the NCI-H460 human non-small cell lung cancer nude mice xenograft model was established and applied for in vivo anti-cancer activity evaluation of three compounds of the invention.
as §3
NCI-H460 human non-small cell lung cancer nude mice xenograft model was established by s.c. injection of 1×10^6 NCI-H460 cells into nude mice axilla. After formation of tumor the xenograft was passaged for three generations in nude mice.
as §4
Tumor volume (TV) was calculated by the following formula: TV=1/2×a×b2 a and b represent length and width, respectively.

Lewis Lung, mouse lung = test: Cell proliferation 96-welled in vitro MTT assay, Lewis Lung; type: cell-based; details: Lewis lung carcinoma, 72 hr incubation, triplicate
Method: as §1, §2

[3] = Dosage 1: topotecan 2 i.v., Compound 1 0.625 i.p., Compound 2 5 i.v., Compound 3 1.5625 i.v. (mg/kg)
[4] = Dosage 2: Compound 1 0.3125 i.p., Compound 2 2.5 i.v., Compound 3 0.78125 i.v. (mg/kg)
[5] = 0.5 week, Dosage 1: topotecan 2, Compound 1 0.625, Compound 2 5, Compound 3 1.5625 mg/kg, X ± SD, n = 8
[6] = 0.5 week, Dosage 2: Compound 1 0.3125, Compound 2 2.5, Compound 3 0.78125 mg/kg, X ± SD, n = 8
[7] = 1 week, Dosage 1: topotecan 2, Compound 1 0.625, Compound 2 5, Compound 3 1.5625 mg/kg
[8] = 1 week, Dosage 2: Compound 1 0.3125, Compound 2 2.5, Compound 3 0.78125 mg/kg
[9] = 1.5 weeks, Dosage 1: topotecan 2, Compound 1 0.625, Compound 2 5, Compound 3 1.5625 mg/kg
[10] = 1.5 weeks, Dosage 2: Compound 1 0.3125, Compound 2 2.5, Compound 3 0.78125 mg/kg
[11] = 2 weeks, Dosage 1: topotecan 2, Compound 1 0.625, Compound 2 5, Compound 3 1.5625 mg/kg
[12] = 2 weeks, Dosage 2: Compound 1 0.3125, Compound 2 2.5, Compound 3 0.78125 mg/kg
[13] = 2.5 weeks, Dosage 1: topotecan 2, Compound 1 0.625, Compound 2 5, Compound 3 1.5625 mg/kg
[14] = 2.5 weeks, Dosage 2: Compound 1 0.3125, Compound 2 2.5, Compound 3 0.78125 mg/kg
[15] = 3 weeks, Dosage 1: topotecan 2, Compound 1 0.625, Compound 2 5, Compound 3 1.5625 mg/kg
[16] = 3 weeks, Dosage 2: Compound 1 0.3125, Compound 2 2.5, Compound 3 0.78125 mg/kg
[17] = 3.5 weeks, Dosage 1: topotecan 2, Compound 1 0.625, Compound 2 5, Compound 3 1.5625 mg/kg
[18] = 3.5 weeks, Dosage 2: Compound 1 0.3125, Compound 2 2.5, Compound 3 0.78125 mg/kg
[19] = 4 weeks, Dosage 1: topotecan 2, Compound 1 0.625, Compound 2 5, Compound 3 1.5625 mg/kg
[20] = 4 weeks, Dosage 2: Compound 1 0.3125, Compound 2 2.5, Compound 3 0.78125 mg/kg
[21] = higher dosage: compound 3 1.5625 mg/kg i.v., compound 2 5 mg/kg i.v., compound 1 0.625 mg/kg i.p., topotecan 2 mg/kg i.v.
[22] = lower dosage: compound 3 0.78125 mg/kg i.v., compound 2 2.5 mg/kg i.v., compound 1 0.3125 mg/kg i.p.

Structure (SMILES): CCCS(=O)(=O)Oc1ccc2nc3c(cc2c1CN(C)C)Cn1c-3cc2c(c1=O)COC(=O)C2(CC)OC(=O)CNC(=O)/C=C\C(=O)O (stereo not shown) [Compound 2]
IC50 (HT-29, Human Colorectal): 50.8 µM | IC50 (MCF-7, Human Breast): 30.8 µM | IC50 (P388, Mouse Lymphoma): 10.6 µM | Ending Body Weight [1, 3]: 18.93 ± 1.49 g | Ending Body Weight [1, 4]: 17.82 ± 1.06 g | Tumor Volume [2, 5]: 205.2 mm3 | Tumor Volume [2, 6]: 182.6 mm3 | Tumor Volume [2, 7]: 413.8 mm3 | Tumor Volume [2, 8]: 472.2 mm3 | Tumor Volume [2, 9]: 602.1 ± 339.3 mm3 | Tumor Volume [2, 10]: 706.8 ± 360.0 mm3 | Tumor Volume [2, 11]: 733.7 ± 497.0 mm3 | Tumor Volume [2, 12]: 861.1 ± 523.9 mm3 | Tumor Volume [2, 13]: 950.0 ± 578.0 mm3 | Tumor Volume [2, 14]: 1084.9 ± 536.3 mm3 | Tumor Volume [2, 15]: 1147.2 ± 598.0 mm3 | Tumor Volume [2, 16]: 1269.1 ± 644.1 mm3 | Tumor Volume [2, 17]: 1632.9 ± 752.6 mm3 | Tumor Volume [2, 18]: 1841.8 ± 859.5 mm3 | Tumor Volume [2, 19]: 1639.4 mm3 | Tumor Volume [2, 20]: 2029.4 mm3 | Tumor Weight [2, 3]: 1.55 ± 0.51 g | Tumor Weight [2, 4]: 1.75 ± 0.90 g | Tumor Inhibitory Growth Weight [2, 3]: 49.7 | Tumor Inhibitory Growth Weight [2, 4]: 43.2 | inhibitory rate [2, 21]: 49.7% | inhibitory rate [2, 22]: 43.2% | effect on nude mice xenograft NCI-H460 human non-small cell lung cancer growth (in words) [2]: could inhibit | dose dependence of anticancer effect (in words) [2]: dose-dependent anticancer effect | IC50 (Lewis Lung, mouse lung): 12.8 µM

IC50 (HT-29, Human Colorectal): 14.3 µM | IC50 (MCF-7, Human Breast): 9.79 µM | IC50 (P388, Mouse Lymphoma): 0.0847 µM
Structure (SMILES): CC[C@@]1(OC(=O)CNC(=O)/C=C\C(=O)O)C(=O)OCc2c1cc1n(c2=O)Cc2cc3c(CN(C)C)c(OS(=O)(=O)C(C)C)ccc3nc2-1 [Compound 3]
Ending Body Weight [1, 3]: 19.63 ± 0.77 g | Ending Body Weight [1, 4]: 18.42 ± 1.04 g | Tumor Volume [2, 5]: 237.9 mm3 | Tumor Volume [2, 6]: 211.8 mm3 | Tumor Volume [2, 7]: 392.9 mm3 | Tumor Volume [2, 8]: 455.2 mm3 | Tumor Volume [2, 9]: 547.2 ± 390.0 mm3 | Tumor Volume [2, 10]: 624.6 ± 371.5 mm3 | Tumor Volume [2, 11]: 719.6 ± 315.8 mm3 | Tumor Volume [2, 12]: 795.4 ± 389.0 mm3 | Tumor Volume [2, 13]: 958.4 ± 486.2 mm3 | Tumor Volume [2, 14]: 999.8 ± 562.9 mm3 | Tumor Volume [2, 15]: 1093.2 ± 692.2 mm3 | Tumor Volume [2, 16]: 1291.5 ± 564.4 mm3 | Tumor Volume [2, 17]: 1400.4 ± 670.6 mm3 | Tumor Volume [2, 18]: 1553.2 ± 706.3 mm3 | Tumor Volume [2, 19]: 1588.3 mm3 | Tumor Volume [2, 20]: 1908.5 mm3 | Tumor Weight [2, 3]: 1.36 ± 0.50 g | Tumor Weight [2, 4]: 1.65 ± 0.86 g | Tumor Inhibitory Growth Weight [2, 3]: 55.8 | Tumor Inhibitory Growth Weight [2, 4]: 46.4 | inhibitory rate [2, 21]: 55.8% | inhibitory rate [2, 22]: 46.4% | effect on nude mice xenograft NCI-H460 human non-small cell lung cancer growth (in words) [2]: could inhibit | dose dependence of anticancer effect (in words) [2]: dose-dependent anticancer effect | IC50 (Lewis Lung, mouse lung): 0.929 µM

Structure (SMILES): CCC1(OC(=O)CNC(=O)/C=C\C(=O)O)C(=O)OCc2c1cc1n(c2=O)Cc2cc3ccccc3nc2-1 (stereo not shown) [Compound 1]
IC50 (HT-29, Human Colorectal): 44.3 µM | IC50 (MCF-7, Human Breast): 20.4 µM | IC50 (P388, Mouse Lymphoma): 10.9 µM | Ending Body Weight [1, 3]: 18.86 ± 1.60 g | Ending Body Weight [1, 4]: 18.59 ± 1.46 g | Tumor Volume [2, 5]: 220.9 mm3 | Tumor Volume [2, 6]: 194.9 mm3 | Tumor Volume [2, 7]: 504.2 mm3 | Tumor Volume [2, 8]: 560.8 mm3 | Tumor Volume [2, 9]: 706.7 ± 450.3 mm3 | Tumor Volume [2, 10]: 766.0 ± 480.3 mm3 | Tumor Volume [2, 11]: 1104.7 ± 759.6 mm3 | Tumor Volume [2, 12]: 1245.7 ± 585.6 mm3 | Tumor Volume [2, 13]: 1367.1 ± 880.2 mm3 | Tumor Volume [2, 14]: 1459.9 ± 793.3 mm3 | Tumor Volume [2, 15]: 1566.7 ± 867.8 mm3 | Tumor Volume [2, 16]: 1638.9 ± 827.1 mm3 | Tumor Volume [2, 17]: 1798.2 ± 767.2 mm3 | Tumor Volume [2, 18]: 1909.7 ± 464.4 mm3 | Tumor Volume [2, 19]: 2088.1 mm3 | Tumor Volume [2, 20]: 2209.8 mm3 | Tumor Weight [2, 3]: 1.77 ± 0.73 g | Tumor Weight [2, 4]: 1.85 ± 0.75 g | Tumor Inhibitory Growth Weight [2, 3]: 42.5 | Tumor Inhibitory Growth Weight [2, 4]: 39.9 | inhibitory rate [2, 21]: 42.5% | inhibitory rate [2, 22]: 39.9% | effect on nude mice xenograft NCI-H460 human non-small cell lung cancer growth (in words) [2]: could inhibit | dose dependence of anticancer effect (in words) [2]: dose-dependent anticancer effect | IC50 (Lewis Lung, mouse lung): 6.34 µM

IC50 (HT-29, Human Colorectal): 22.9 µM | IC50 (MCF-7, Human Breast): 22.2 µM | IC50 (P388, Mouse Lymphoma): 18.5 µM
Structure (SMILES): CC[C@@]1(O)C(=O)OCc2c1cc1n(c2=O)Cc2cc3c(CN(C)C)c(O)ccc3nc2-1 [topotecan, Topotecan, reference compound]
Ending Body Weight [1, 3]: 17.32 ± 1.18 g | Tumor Volume [2, 5]: 209.6 mm3 | Tumor Volume [2, 7]: 574.0 mm3 | Tumor Volume [2, 9]: 759.8 ± 419.9 mm3 | Tumor Volume [2, 11]: 933.1 ± 496.8 mm3 | Tumor Volume [2, 13]: 1220.7 ± 611.4 mm3 | Tumor Volume [2, 15]: 1273.3 ± 685.1 mm3 | Tumor Volume [2, 17]: 1413.0 ± 717.0 mm3 | Tumor Volume [2, 19]: 1639.9 mm3 | Tumor Weight [2, 3]: 1.58 ± 0.74 g | Tumor Inhibitory Growth Weight [2, 3]: 48.7 | inhibitory rate [2, 21]: 48.7% | IC50 (Lewis Lung, mouse lung): 11 µM
